# Test results reported in US8981052B2, “JNK inhibitor molecules” (Xigen Inflammation Ltd., priority 2010, dated 2015).
# Where a SMILES comes first, the peptide text is derived from it. Where no end group is shown, it is not given here. [ ]: non-standard residue; d: D form.
# Legend:
# [1] = Stability (half-life) of JNK inhibitors in human serum, UPLC-MS
# Method: The experiment was performed as described by Tugyi et al. (Proc Natl Acad Sci USA, 2005, 413-418). The remaining intact peptide was quantified by UPLC-MS.
# [2] = test system: primary rat lymph-nodes purified T cells; test: CD3/CD28-induced IL-2 release in primary rat lymph-nodes purified T cells; type: cell-based; conditions: inhibitor added 1 h before CD3/CD28 (2 μg/mL), supernatant after 24 h
# Method: Control rat were sacrificed and lymph-nodes were harvested. T cells further were purified (using magnetic negative selection) and plated into 96-well plates at 200,000 cells/well. Cells were treated with anti-rat CD3 and anti-rat CD28 antibodies (2 μg/mL). JNK inhibitor with SEQ ID NO: 172 was added to the cultures 1 h before CD3/CD28 treatment and IL-2 release was assessed in supernatant 24 h after treatment.
# Control animal were sacrificed, lymph nodes (LN) were harvested and kept in complete RPMI medium. LN were smashed with complete RPMI on 70 μm filter using a 5 ml piston. A few drops of media were added to keep strainer wet. Cells were centrifuged for 7 min at 450 g and 4° c. Pellet was resuspended in 5 ml fresh medium. Cells were passed again through cell strainer. An aliquot of cells was counted, while cells were centrifuged again 10 min at 1400 rpm and 4° c. Cells were resupended in MACS buffer (80 μl of MACS buffer per 10^7 cells). 10 μl of anti-rat MHC microbeads were added per 10 million cells, cells were incubated for 15 min at 4°-8° C. Cells were washed with 15 ml MACS buffer and centrifuge for 7 min at 700 g and 4° C. […] Resuspended cells were counted and plated at density of 200000 cells/well in 100 μl of complete medium. […] Cytokines were then measured using standard Elisa kits. Results are expressed as pg/ml of supernatant of the measured cytokine. […]
# [3] = molecular target: T1, His-JNK1 (Homo sapiens, UniProt P45983); test: AlphaScreen assay, inhibition of JNK1 mediated phosphorylation of biotin-cJun substrate; type: biochemical; conditions: compared with L-TAT-IB1; JNK isoform not stated
# T1 construct: His; purchased Upstate 14-327
# T1 sequence (P45983 1-384 isoform P45983-2): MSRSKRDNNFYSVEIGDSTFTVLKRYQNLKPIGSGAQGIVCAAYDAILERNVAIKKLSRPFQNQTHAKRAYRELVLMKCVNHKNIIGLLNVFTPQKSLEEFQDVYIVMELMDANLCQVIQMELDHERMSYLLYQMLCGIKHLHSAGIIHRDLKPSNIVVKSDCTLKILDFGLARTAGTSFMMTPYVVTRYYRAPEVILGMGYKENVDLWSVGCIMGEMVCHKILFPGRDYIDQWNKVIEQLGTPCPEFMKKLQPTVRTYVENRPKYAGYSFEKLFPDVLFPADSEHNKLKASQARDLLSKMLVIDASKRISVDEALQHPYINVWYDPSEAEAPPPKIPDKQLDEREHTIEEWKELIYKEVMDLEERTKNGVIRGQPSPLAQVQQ
# Method: In the following the standard operating procedure will be set forth describing how the Inhibitory efficacy of JNK inhibitors according to the present invention was measured. The method allows to measure in vitro, in a non radioactive standardized assay, the ability of a candidate compound to decrease the phosphorylation of the c-Jun specific substrate by JNK. Moreover, it will be illustrated how to determine the inhibitory effect (IC50) and the Ki of a chosen compound for JNK.
# • His-JNK1 (ref 14-327, Upstate, 10 μg in 100 μl: concentration: 2.2 μM) 5 nM final • His-JNK2 (ref 14-329, Upstate, 10 μg in 100 μl: concentration: 2 μM) 5 nM final • His-JNK3 (ref 14-501, Upstate, 10 μg in 100 μl: concentration: 1.88 μM) 5 nM final • Anti-Phospho-cJun (ref 06-828, Upstate, lot DAM1503356, concentration: 44.5 μM) 10 nM final • Biotin-cJun (29-67): • sequence: Biotin-[…] […]
# The bioluminescent energy transfer was read on the Fusion Alpha Plate reader (Perkin Elmer). […]
# [4] = test system: Hela cells; test: Internalization of TAT derived transporters, 24 hours incubation, fluorescence of cell extracts; type: cell-based; conditions: FIG. 6; Y in position 2
# Method: The transporter sequences analyzed correspond to SEQ ID NOs: 52-94 plus SEQ ID NOs: 45, 47, 46, 43 and 99 (FIG. 6a) and SEQ ID NOs: 100-147 (FIG. 6b). […] Hela cells were incubated 24 hours in 96 well plate with […] of the respective transporters. The cells were then washed twice with an acidic buffer (0.2M Glycin, 0.15M NaCl, pH 3.0) and twice with PBS. Cells were broken by the addition of RIPA lysis buffer. The relative amount of internalized peptide was then determined by reading the fluorescence intensity (Fusion Alpha plate reader; PerkinElmer) of each extract followed by background subtraction.
# Hela cells were incubated 24 hours in 96 well plate with […] of the r3-L-TAT-derived transporters. The cells were then washed twice with an acidic buffer (0.2M Glycin, 0.15M NaCl, pH 3.0) and twice with PBS. Cells were broken by the addition of RIPA lysis buffer. The relative amount of internalized peptide was then determined by reading the fluorescence intensity (Fusion Alpha plate reader; PerkinElmer) of each extract followed by background subtraction
molecule,measurement,setting,value
"CC(C)C[C@H](NC(=O)[C@H](CC(N)=O)NC(=O)[C@H](CC(C)C)NC(=O)[C@@H](NC(=O)[C@@H](C)NC(=O)[C@@H]1CCCN1C(=O)[C@H](CCCNC(=N)N)NC(=O)[C@@H](CCCCN)NC(=O)[C@@H]1CCCN1C(=O)[C@H](CCCNC(=N)N)NC(=O)[C@@H](CCCNC(=N)N)NC(=O)[C@H](CCCNC(=N)N)NC(=O)[C@H](CCCNC(=N)N)NC(=O)[C@H](CCC(N)=O)NC(=O)[C@@H](CCCNC(=N)N)NC(=O)[C@H](CCCNC(=N)N)NC(=O)[C@H](CCCCN)NC(=O)[C@H](CCCCN)NC(=O)[C@H](N)CCCNC(=N)N)[C@@H](C)O)C(=O)N[C@H](Cc1ccccc1)C(N)=O [SEQ ID NO: 172, rKKRrQRRrRPkRPaTLNLf] (H-[dR]KKR[dR]QRR[dR]RP[dK]RP[dA]TLNL[dF]-NH2; N-terminus assumed)",time until completely degraded,"[1]; human serum (50%; 10 and 50% in PBS 1×), 0.1 mM peptide",14 days
dqsrpvqpflnlttprkprpprrrqrrkkrg ([dD][dQ][dS][dR][dP][dV][dQ][dP][dF][dL][dN][dL][dT][dT][dP][dR][dK][dP][dR][dP][dP][dR][dR][dR][dQ][dR][dR][dK][dK][dR]G) [SEQ ID NO: 197],CD3/CD28-induced IL-2 release,[2],Dose-dependent inhibition
same,sensitivity to proteolytic degradation,[1],extremely stable towards proteolytic digestion
same,"inhibitory capacity (JNK inhibition, FIG. 4)",[3],significant decrease in inhibitory capacity in comparison to L-TAT-IB1
rYKRrQRRr ([dR]YKR[dR]QRR[dR]) [SEQ ID NO: 142],transporter activity,[4],highest transporter activity
